Measurements taken from PubChem BioAssay (NCI).
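Interpolation was linear, between the two tested concentrations surrounding the appropriate level; five concentrations were tested over 48 hours in 96-well plates. The concentration for full growth arrest is given as TGI.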

Assays:
Assay in all cases: NCI tumour cell line growth inhibition, 48 h
786-0 renal = test system: 786-0 renal
A498 renal = test system: A498 renal
A549 NSCLC = test system: A549 NSCLC
ACHN renal = test system: ACHN renal
CAKI-1 renal = test system: CAKI-1 renal
COLO 205 colon = test system: COLO 205 colon
DU-145 prostate = test system: DU-145 prostate
EKVX NSCLC = test system: EKVX NSCLC
HCC-2998 colon = test system: HCC-2998 colon
HCT-116 colon = test system: HCT-116 colon
HCT-15 colon = test system: HCT-15 colon
HL-60(TB) leukemia = test system: HL-60(TB) leukemia
HOP-62 NSCLC = test system: HOP-62 NSCLC
HOP-92 NSCLC = test system: HOP-92 NSCLC
HS 578T breast = test system: HS 578T breast
HT29 colon = test system: HT29 colon
IGROV1 ovarian = test system: IGROV1 ovarian
K-562 leukemia = test system: K-562 leukemia
KM12 colon = test system: KM12 colon
M14 melanoma = test system: M14 melanoma
MALME-3M melanoma = test system: MALME-3M melanoma
MCF7 breast = test system: MCF7 breast
MDA-MB-231 breast = test system: MDA-MB-231 breast
MDA-MB-435 = test system: MDA-MB-435
MOLT-4 leukemia = test system: MOLT-4 leukemia
NCI-H226 lung = test system: NCI-H226 lung
NCI-H23 lung = test system: NCI-H23 lung
NCI-H460 lung = test system: NCI-H460 lung
NCI-H522 lung = test system: NCI-H522 lung
NCI/ADR-RES ovarian = test system: NCI/ADR-RES ovarian
OVCAR-3 ovarian = test system: OVCAR-3 ovarian
OVCAR-4 ovarian = test system: OVCAR-4 ovarian
OVCAR-5 ovarian = test system: OVCAR-5 ovarian
OVCAR-8 ovarian = test system: OVCAR-8 ovarian
PC-3 prostate = test system: PC-3 prostate
RPMI-8226 leukemia = test system: RPMI-8226 leukemia
RXF 393 renal = test system: RXF 393 renal
SF-268 CNS = test system: SF-268 CNS
SF-295 CNS = test system: SF-295 CNS
SF-539 CNS = test system: SF-539 CNS
SK-MEL-2 melanoma = test system: SK-MEL-2 melanoma
SK-MEL-28 melanoma = test system: SK-MEL-28 melanoma
SK-MEL-5 melanoma = test system: SK-MEL-5 melanoma
SK-OV-3 ovarian = test system: SK-OV-3 ovarian
SN12C renal = test system: SN12C renal
SNB-19 CNS = test system: SNB-19 CNS
SNB-75 CNS = test system: SNB-75 CNS
SR leukemia = test system: SR leukemia
SW-620 colon = test system: SW-620 colon
T-47D breast = test system: T-47D breast
TK-10 renal = test system: TK-10 renal
U251 CNS = test system: U251 CNS
UACC-257 melanoma = test system: UACC-257 melanoma
UACC-62 melanoma = test system: UACC-62 melanoma
UO-31 renal = test system: UO-31 renal

## Cc1ccc(C(=O)/C=C/N2CCN(c3cccc(C(F)(F)F)c3)CC2)cc1
786-0 renal
  TGI: 34 µM
A498 renal
  TGI: 33.3 µM
A549 NSCLC
  TGI: 53.6 µM
ACHN renal
  TGI: 60.5 µM
CAKI-1 renal
  TGI: 37 µM
COLO 205 colon
  TGI: 72 µM
DU-145 prostate
  TGI: 38 µM
EKVX NSCLC
  TGI: 41.8 µM
HCC-2998 colon
  TGI: 25.5 µM
HCT-116 colon
  TGI: 30.6 µM
HCT-15 colon
  TGI: 29.5 µM
HL-60(TB) leukemia
  TGI: 60.2 µM
HOP-62 NSCLC
  TGI: 37.4 µM
HOP-92 NSCLC
  TGI: > 100 µM
HS 578T breast
  TGI: 51.4 µM
HT29 colon
  TGI: 35.8 µM
IGROV1 ovarian
  TGI: 31.4 µM
K-562 leukemia
  TGI: 49.1 µM
KM12 colon
  TGI: 38.1 µM
M14 melanoma
  TGI: 30.5 µM
MALME-3M melanoma
  TGI: 38.1 µM
MCF7 breast
  TGI: 34 µM
MDA-MB-231 breast
  TGI: 33.4 µM
MDA-MB-435
  TGI: 32.4 µM
MOLT-4 leukemia
  TGI: 48.2 µM
NCI-H226 lung
  TGI: 38.9 µM
NCI-H23 lung
  TGI: 31 µM
NCI-H460 lung
  TGI: 47.8 µM
NCI-H522 lung
  TGI: 35.4 µM
NCI/ADR-RES ovarian
  TGI: 33 µM
OVCAR-3 ovarian
  TGI: 28.5 µM
OVCAR-4 ovarian
  TGI: > 100 µM
OVCAR-5 ovarian
  TGI: 39.1 µM
OVCAR-8 ovarian
  TGI: 38.9 µM
PC-3 prostate
  TGI: > 100 µM
RPMI-8226 leukemia
  TGI: > 100 µM
RXF 393 renal
  TGI: 33.1 µM
SF-268 CNS
  TGI: 36.8 µM
SF-295 CNS
  TGI: 34 µM
SF-539 CNS
  TGI: 31.5 µM
SK-MEL-2 melanoma
  TGI: 34.8 µM
SK-MEL-28 melanoma
  TGI: 38.4 µM
SK-MEL-5 melanoma
  TGI: 29.2 µM
SK-OV-3 ovarian
  TGI: 95.5 µM
SN12C renal
  TGI: 36.3 µM
SNB-19 CNS
  TGI: > 100 µM
SNB-75 CNS
  TGI: 34.7 µM
SR leukemia
  TGI: 40.3 µM
SW-620 colon
  TGI: 49.8 µM
T-47D breast
  TGI: 76.5 µM
TK-10 renal
  TGI: 56.8 µM
U251 CNS
  TGI: 31.4 µM
UACC-257 melanoma
  TGI: 32.5 µM
UACC-62 melanoma
  TGI: 34.8 µM
UO-31 renal
  TGI: 36.7 µM
